Data taken from patent publication US20250049812A1, “Compounds that Inhibit Necroptosis and Their Preparation Methods” (SHANGHAI INSTITUTE OF ORGANIC CHEMISTRY, CHINESE ACADEMY OF …, priority 2021, published 2025).

These compounds were tested on Jurkat FADD (−/−) Cells (assay: TNF-α induced necroptosis of Jurkat FADD-deficient cells (CellTiter-Glo cell survival)). Conditions: Homo sapiens; TNF-α induced necroptosis, Jurkat FADD-deficient cells, 13 hours, CellTiter-Glo; read-out: IC50.
Assay type: cell-based, human
Procedure, shortened: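 Cells in RPMI 1640 with 10% FBS were pretreated for 1 h at 37 °C with compound (12-point threefold series from 25 μM, or 0.5 μM, in triplicate). They were then stimulated with TNFα added as a 5 ng/mL solution for 13 h. Survival was read by luminescence.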
`COCc1cccc(-c2cn3c4c(cccc24)N(C)C(=O)C(NC(=O)c2nnc(Cc4ccccc4)[nH]2)C3)c1` (racemic) [T-80, (±)-5-benzyl-N-(7-(3-(methoxymethyl)phenyl)-1-methyl-2-oxo-1,2,3,4-tetrahydro-[1,4]diazepino [3,2,1-hi]indol-3-yl)-4H-1,2,4-triazole-3-carboxamide] showed an IC50 of 0.01 to 0.1 µM.
In the case of `CN1C(=O)C(NC(=O)c2ncc(Cc3ccccc3)o2)Cn2cc(-c3ccnn3C)c3cccc1c32` (racemic) [T-83, (±)-5-benzyl-N-(1-methyl-7-(1-methyl-1H-pyrazol-5-yl)-2-oxo-1,2,3,4-tetrahydro-[1,4]diazepino[3,2,1-hi]indol-3-yl)-oxazole-2-carboxamide], the IC50 is reported as < 0.01 µM.
`CN1C(=O)C(NC(=O)c2nnc(Cc3ccccc3)[nH]2)Cn2cc(-c3ccccc3C(F)(F)F)c3cccc1c32` (racemic) [T-84, (±)-5-benzyl-N-(1-methyl-2-oxo-7-(2-(trifluoromethyl)phenyl)-1,2,3,4-tetrahydro-[1,4]diazepino [3,2,1-hi]indol-3-yl)-4H-1,2,4-triazole-3-carboxamide] showed an IC50 of 0.01 to 0.1 µM.
For `COc1cccc(OC)c1-c1cn2c3c(cccc13)N(C)C(=O)C(NC(=O)c1nnc(Cc3ccccc3)[nH]1)C2` (racemic) [T-85, (±)-5-benzyl-N-(7-(2,6-dimethoxyphenyl)-1-methyl-2-oxo-1,2,3,4-tetrahydro-[1,4]diazepino [3,2,1-hi]indol-3-yl)-4H-1,2,4-triazole-3-carboxamide], the IC50 was 0.1 to 1 µM.
`COc1ccccc1-c1cn2c3c(cccc13)N(C)C(=O)C(NC(=O)c1nnc(Cc3ccccc3)[nH]1)C2` (racemic) [T-87, (±)-5-benzyl-N-(7-(2-methoxyphenyl)-1-methyl-2-oxo-1,2,3,4-tetrahydro-[1,4]diazepine [3,2,1-hi]indol-3-yl)-4H-1,2,4-triazole-3-carboxamide] showed an IC50 of 0.01 to 0.1 µM.
`CN1C(=O)C(NC(=O)c2nnc(Cc3ccccc3)[nH]2)Cn2cc(-c3cnoc3)c3cccc1c32` (racemic) [T-88, (±)-5-benzyl-N-(7-(isoxazol-4-yl)-1-methyl-2-oxo-1,2,3,4-tetrahydro-[1,4]diazepine [3,2,1-hi]indol-3-yl)-4H-1,2,4-triazole-3-carboxamide] was tested, and the IC50 was 0.01 to 0.1 µM.
In the case of `CN1C(=O)C(N2CCc3c(nn(Cc4ccccc4)c3Cl)C2=O)Cn2cc(-c3ccnn3C)c3cccc1c32` (racemic) [T-89, (±)-3-(2-benzyl-3-chloro-7-oxo-2,4,5,7-tetrahydro-6H-pyrazole [3,4-c]pyridin-6-yl)-1-methyl-7-(1-methyl-1H-pyrazol-5-yl)-3,4-dihydro-[1,4]diazepine[3,2,1-hi]indole-2(1H)-one], the IC50 is reported as 0.01 to 0.1 µM.
With `CC(C)n1nccc1-c1cn2c3c(cccc13)N(C)C(=O)C(NC(=O)c1nnc(Cc3ccccc3)[nH]1)C2` (racemic) [T-90, (±)-5-benzyl-N-(7-(1-isopropyl-1H-pyrazol-5-yl)-1-methyl-2-oxo-1,2,3,4-tetrahydro-1,4-diazepine [3,2,1-hi]indol-3-yl)-4H-1,2,4-triazole-3-carboxamide] the IC50 was < 0.01 µM.
Compound `Cc1ccsc1-c1cn2c3c(cccc13)N(C)C(=O)C(NC(=O)c1nnc(Cc3ccccc3)[nH]1)C2` (racemic) [T-91, (±)-5-benzyl-N-(1-methyl-7-(3-methylthiophen-2-yl)-2-oxo-1,2,3,4-tetrahydro-[1,4]diazepine [3,2,1-hi]indol-3-yl)-4H-1,2,4-triazole-3-carboxamide] has an IC50 of 0.01 to 0.1 µM.
`CN1C(=O)C(NC(=O)c2nnc(Cc3ccccc3)[nH]2)Cc2cn(-c3ncccc3CC(F)(F)F)c3cccc1c23` (racemic) [T-97, (±)-5-benzyl-N-(1-methyl-2-oxo-6-(3-(2,2,2-trifluoroethyl)pyridin-2-yl)-2,3,4,6-tetrahydro-1H-azacyclo [4,3,2-cd]indol-3-yl)-4H-1,2,4-triazole-3-carboxamide] was tested, and the IC50 was < 0.01 µM.
For `CN1C(=O)C(NC(=O)c2nnc(Cc3ccccc3)[nH]2)Cc2cn(-c3nccc4ccccc34)c3cccc1c23` (racemic) [T-99, (±)-5-benzyl-N-(6-(isoquinolin-1-yl)-1-methyl-2-oxo-2,3,4,6-tetrahydro-1H-aza [4,3,2-cd]indol-3-yl)-4H-1,2,4-triazole-3-carboxamide], the IC50 was < 0.01 µM.
With `COC(=O)c1cc(-n2cc3c4c(cccc42)N(C)C(=O)C(NC(=O)c2nnc(Cc4ccccc4)[nH]2)C3)cn1C` (racemic) [T-100, (±)-methyl4-(3-(5-benzyl-4H-1,2,4-triazole-3-carboxamide)-1-methyl-2-oxo-1,2,3,4-tetrahydro-6H-azacyclo [4,3,2-cd]indol-6-yl)-1-methyl-1H-pyrrole-2-carboxylate] the IC50 was 0.01 to 0.1 µM.
Compound `CN1C(=O)C(NC(=O)c2nnc(Cc3ccccc3)[nH]2)Cc2cn(-c3cccnc3)c3cccc1c23` (racemic) [T-101, (±)-5-benzyl-N-(1-methyl-2-oxo-6-(pyridin-3-yl)-2,3,4,6-tetrahydro-1H-azacyclo [4,3,2-cd]indol-3-yl)-4H-1,2,4-triazole-3-carboxamide] has an IC50 of 0.01 to 0.1 µM.
For `CN1C(=O)C(NC(=O)c2nnc(Cc3ccccc3)[nH]2)Cc2cn(-c3ccncc3)c3cccc1c23` (racemic) [T-102, (±)-5-benzyl-N-(1-methyl-2-oxo-6-(pyridin-4-yl)-2,3,4,6-tetrahydro-1H-azacyclo [4,3,2-cd]indol-3-yl)-4H-1,2,4-triazole-3-carboxamide], the IC50 was 0.01 to 0.1 µM.
With `CCOC(=O)c1cccnc1-n1cc2c3c(cccc31)N(C)C(=O)C(NC(=O)c1nnc(Cc3ccccc3)[nH]1)C2` (racemic) [T-103] the IC50 was 0.01 to 0.1 µM.
For `CC(C)OC(=O)c1cccnc1-n1cc2c3c(cccc31)N(C)C(=O)C(NC(=O)c1nnc(Cc3ccccc3)[nH]1)C2` (racemic) [T-104, (±)-2-(3-(5-benzyl-4H-1,2,4-triazole-3-carboxamide)-1-methyl-2-oxo-1,2,3,4-tetrahydro-6H-azacyclo [4,3,2-cd]indol-6-yl)isopropyl Nicotinate], the IC50 was 0.01 to 0.1 µM.
For `CN1C(=O)C(NC(=O)c2nnc(Cc3ccccc3)[nH]2)Cc2cn(-c3ncccc3OC(F)(F)F)c3cccc1c23` (racemic) [T-105, (±)-5-benzyl-N-(1-methyl-2-oxo-6-(3-(trifluoromethoxy)pyridin-2-yl)-2,3,4,6-tetrahydro-1H-azacyclo [4,3,2-cd]indol-3-yl)-4H-1,2,4-triazole-3-carboxamide], the IC50 was < 0.01 µM.
Compound `CN1C(=O)C(NC(=O)c2nnc(Cc3ccccc3)[nH]2)Cc2cn(-c3cccnn3)c3cccc1c23` (racemic) [T-106, (±)-5-benzyl-N-(1-methyl-2-oxo-6-(pyridazin-3-yl)-2,3,4,6-tetrahydro-1H-aza [4,3,2-cd]indol-3-yl)-4H-1,2,4-triazole-3-carboxamide] has an IC50 of 0.1 to 1 µM.
In the case of `CN1C(=O)C(NC(=O)c2nnc(Cc3ccccc3)[nH]2)Cc2cn(-c3ncccc3OC(F)F)c3cccc1c23` (racemic) [T-107, (±)-5-benzyl-N-(6-(3-(difluoromethoxy)pyridin-2-yl)-1-methyl-2-oxy-2,3,4,6-tetrahydro-1H-azacyclo [4,3,2-cd]indol-3-yl)-4H-1,2,4-triazole-3-carboxamide], the IC50 is reported as < 0.01 µM.
`CCS(=O)(=O)c1cccnc1-n1cc2c3c(cccc31)N(C)C(=O)C(NC(=O)c1nnc(Cc3ccccc3)[nH]1)C2` (racemic) [T-108, (±)-5-benzyl-N-(6-(3-(ethylsulfonyl)pyridin-2-yl)-1-methyl-2-oxo-2,3,4,6-tetrahydro-1H-aza [4,3,2-cd]indol-3-yl)-4H-1,2,4-triazole-3-carboxamide] was tested, and the IC50 was 0.01 to 0.1 µM.
In the case of `CN1C(=O)C(NC(=O)c2nnc(Cc3ccccc3)[nH]2)Cc2cn(-c3ncccc3S(=O)(=O)C3CC3)c3cccc1c23` (racemic) [T-109, (±)-5-benzyl-N-(6-(3-(cyclopropylsulfonyl)pyridin-2-yl)-1-methyl-2-oxo-2,3,4,6-tetrahydro-1H-azacyclo [4,3,2-cd]indol-3-yl)-4H-1,2,4-triazole-3-carboxamide], the IC50 is reported as < 0.01 µM.
For `CN1C(=O)C(NC(=O)c2nnc(Cc3ccccc3)[nH]2)Cc2cn(-c3ncccc3P(C)(C)=O)c3cccc1c23` (racemic) [T-110, (±)-5-benzyl-N-(6-(3-(dimethylphosphoryl)pyridin-2-yl)-1-methyl-2-oxo-2,3,4,6-tetrahydro-1H-aza [4,3,2-cd]indol-3-yl)-4H-1,2,4-triazole-3-carboxamide], the IC50 was > 1 µM.
For `CN1C(=O)C(NC(=O)c2nnc(Cc3ccccc3)[nH]2)Cc2cn(-c3ncccc3SC(F)(F)F)c3cccc1c23` (racemic) [T-111, (±)-5-benzyl-N-(1-methyl-2-oxo-6-(3-((trifluoromethyl)thio)pyridin-2-yl)-2,3,4,6-tetrahydro-1H-aza [4,3,2-cd]indol-3-yl)-4H-1,2,4-triazole-3-carboxamide], the IC50 was < 0.01 µM.
In the case of `Cc1nn(C)c(C)c1-c1cn2c3c(cccc13)N(C)C(=O)C(NC(=O)c1nnc(Cc3ccccc3)[nH]1)C2` (racemic) [T-114, (±)-5-benzyl-N-(1-methyl-2-oxo-7-(1,3,5-trimethyl-1H-pyrazol-4-yl)-1,2,3,4-tetrahydro-[1,4]diazepine [3,2,1-hi]indol-3-yl)-4H-1,2,4-triazole-3-carboxamide], the IC50 is reported as < 0.01 µM.
`CN1C(=O)C(NC(=O)c2nnc(Cc3ccccc3)[nH]2)Cc2c[nH]c3ccnc1c23` (racemic) [T-129, (±)-5-benzyl-N-(6-methyl-7-oxo-6,7,8,9-tetrahydro-2H-2,5,6-triazabenzene[cd]azulene-8-yl)-4H-1,2,4-triazol-3-carboxamide] gave an IC50 of 0.1 to 1 µM.
`CN1C(=O)C(NC(=O)c2nnc(Cc3ccccc3)[nH]2)Cc2c[nH]c3cncc1c23` (racemic) [T-130, (±)-5-benzyl-N-(6-methyl-7-oxo-6,7,8,9-tetrahydro-2H-2,3,6-triazabenzene[cd]azulene-8-yl)-4H-1,2,4-triazol-3-carboxamide] was tested, and the IC50 was > 1 µM.

Same assay, conditions: TNF-α induced necroptosis, Jurkat FADD-deficient cells, 13 hours, CellTiter-Glo; read-out: IC50
With `Cc1nn(C)c(C)c1-c1cn2c3c(cccc13)N(C)C(=O)C(NC(=O)c1nnc(Cc3ccccc3)[nH]1)C2` (racemic) [T-119, (±)-5-benzyl-N-(1-methyl-2-oxo-7-(1,3,5-trimethyl-1H-pyrazol-4-yl)-1,2,3,4-tetrahydro-[1,4]diazepine [3,2,1-hi]indol-3-yl)-4H-1,2,4-triazole-3-carboxamide] the IC50 was < 0.01 µM.
